The record followed here is patent publication US20220106296A1, “CYANOTRIAZOLE COMPOUNDS AND USES THEREOF” (Novartis AG, priority 2018, published 2022).

The test system of the assay is T. b. brucei Lister427 bloodstream form parasites. Kind of assay: T. b. brucei growth inhibition assay (CellTiter-Glo, 48 hours). In kind it is cell-based. To be noted: Trypanosoma brucei. An excerpt: Bloodstream form of T. b. brucei Lister427 strain was obtained from the Genomics Institute of the Novartis Research Foundation. This strain was used for carrying out growth inhibition and kill kinetics assays. T. b. gambiense STIB930 and T. b. rhodesiense STIB900 were obtained from Swiss TPH, were used for carrying out the growth inhibition assays.
Bloodstream form T. b. brucei Lister 427 parasites were continuously passaged in HMI-9 medium formulated from IMDM medium (Invitrogen), 10% heat-inactivated fetal bovine serum (FBS), 10% Serum Plus medium supplement (SAFC Biosciences), 1 mM hypoxanthine (Sigma-Aldrich), 50 μM bathocuproine disulfonic acid (Sigma-Aldrich), 1.5 mM cysteine (Sigma-Aldrich), 1 mM pyruvic acid (Sigma-Aldrich), 39 μg/mL thymidine (Sigma-Aldrich), and 14 μL/L beta-mercapthoethanol (Sigma-Aldrich); all concentrations of added components refer to that in complete HMI-9 medium. The parasites were cultured in 10 mL of HMI-9 medium in T75 CELL-STAR tissue culture flasks at 37° C./5% CO2.
To determine compound growth inhibitory potency on T. b. brucei Lister427 bloodstream form parasites, 200 nL of 10-point, 3 fold serially diluted compounds in DMSO were transferred to the wells of white, solid bottom 384-well plates (Greiner Bio-One) by either Echo 555 acoustic liquid handling system or Mosquito. Then, 1×10^4 of T. b. brucei parasites in 40 μL of HMI-9 medium were added to each well, and the plates were incubated for 48 hours at 37° C. in 5% CO2 incubators. Parasite numbers in individual plate wells were determined through quantification of intracellular ATP amount. The CellTiter-Glo luminescent cell viability reagent (Promega) was added to plate wells, and ATP-dependent luminescence signal was measured on Tecan M1000 plate Reader after 30 min incubation. Luminescence values in wells with compounds were divided by the average luminescence value of the plate DMSO controls, and used for calculation of compound IC50 values.

With `N#Cc1ncn(CC(=O)N2Cc3ccc(-c4cc(F)ccc4C(F)(F)F)cc3C2)n1` [Example 28, 1-(2-(5-(5-fluoro-2-(trifluoromethyl)phenyl)isoindolin-2-yl)-2-oxoethyl)-1H-1,2,4-triazole-3-carbonitrile], the IC50 was < 100 nM.

Take `N#Cc1ncn(CC(=O)N2Cc3ccc(-c4cccnc4Cl)cc3C2)n1` [Example 47, 1-(2-(5-(2-chloropyridin-3-yl)isoindolin-2-yl)-2-oxoethyl)-1H-1,2,4-triazole-3-carbonitrile]: the IC50 lay within 100 to 1000 nM.

With `N#Cc1ncn(CC(=O)N2Cc3ccc(-c4ccncc4Cl)cc3C2)n1` [Example 49, 1-(2-(5-(3-chloropyridin-4-yl)isoindolin-2-yl)-2-oxoethyl)-1H-1,2,4-triazole-3-carbonitrile], the IC50 was 100 to 1000 nM. For the molecule `COc1ccc(-c2ccc3c(c2)CN(C(=O)Cn2cnc(C#N)n2)C3)c(OC)c1` [Example 53, 1-(2-(5-(2,4-dimethoxyphenyl)isoindolin-2-yl)-2-oxoethyl)-1H-1,2,4-triazole-3-carbonitrile], the IC50 is ≥ 1000 nM. For the molecule `N#Cc1cccc(-c2ccc3c(c2)CN(C(=O)Cn2cnc(C#N)n2)C3)c1` [Example 54, 1-(2-(5-(3-cyanophenyl)isoindolin-2-yl)-2-oxoethyl)-1H-1,2,4-triazole-3-carbonitrile], the IC50 was ≥ 1000 nM.

For `N#Cc1ncn(CC(=O)N2Cc3ccc(-c4ccc(F)cc4F)cc3C2)n1` [Example 55, 1-(2-(5-(2,4-difluorophenyl)isoindolin-2-yl)-2-oxoethyl)-1H-1,2,4-triazole-3-carbonitrile], the IC50 is ≥ 1000 nM. With `N#Cc1ncn(CC(=O)N2Cc3ccc(-c4ccc(F)nc4)cc3C2)n1` [Example 56, 1-(2-(5-(6-fluoropyridin-3-yl)isoindolin-2-yl)-2-oxoethyl)-1H-1,2,4-triazole-3-carbonitrile], the IC50 was ≥ 1000 nM. In the case of `COc1ccc(F)cc1-c1ccc2c(c1)CN(C(=O)Cn1cnc(C#N)n1)C2` [Example 57, 1-(2-(5-(5-fluoro-2-methoxyphenyl)isoindolin-2-yl)-2-oxoethyl)-1H-1,2,4-triazole-3-carbonitrile], the IC50 was ≥ 1000 nM. For `N#Cc1ncn(CC(=O)N2Cc3ccc(-c4ccc(Cl)cc4F)cc3C2)n1` [Example 58, 1-(2-(5-(4-chloro-2-fluorophenyl)isoindolin-2-yl)-2-oxoethyl)-1H-1,2,4-triazole-3-carbonitrile], the IC50 was ≥ 1000 nM. As to `COc1ccc(OC)c(-c2ccc3c(c2)CN(C(=O)Cn2cnc(C#N)n2)C3)c1` [Example 59, 1-(2-(5-(2,5-dimethoxyphenyl)isoindolin-2-yl)-2-oxoethyl)-1H-1,2,4-triazole-3-carbonitrile], the IC50 was ≥ 1000 nM.

Regarding `N#Cc1ncn(CC(=O)N2Cc3ccc(-c4ccncc4F)cc3C2)n1` [Example 60, 1-(2-(5-(3-fluoropyridin-4-yl)isoindolin-2-yl)-2-oxoethyl)-1H-1,2,4-triazole-3-carbonitrile], the IC50 was ≥ 1000 nM.

For the molecule `COc1ccc(-c2ccc3c(c2)CN(C(=O)Cn2cnc(C#N)n2)C3)cc1` [Example 61, 1-(2-(5-(4-methoxyphenyl)isoindolin-2-yl)-2-oxoethyl)-1H-1,2,4-triazole-3-carbonitrile], the IC50 was ≥ 1000 nM. As to `COc1ccc(OC(F)(F)F)cc1-c1ccc2c(c1)CN(C(=O)Cn1cnc(C#N)n1)C2` [Example 62, 1-(2-(5-(2-methoxy-5-(trifluoromethoxy)phenyl)isoindolin-2-yl)-2-oxoethyl)-1H-1,2,4-triazole-3-carbonitrile], the IC50 is ≥ 1000 nM. As to `N#Cc1ncn(CC(=O)N2Cc3ccc(-c4ccnc(F)c4)cc3C2)n1` [Example 63, 1-(2-(5-(2-fluoropyridin-4-yl)isoindolin-2-yl)-2-oxoethyl)-1H-1,2,4-triazole-3-carbonitrile], the IC50 is ≥ 1000 nM. Regarding `C#Cc1ccc(-c2ccc3c(c2)CN(C(=O)Cn2cnc(C#N)n2)C3)cc1` [Example 64, 1-(2-(5-(4-ethynylphenyl)isoindolin-2-yl)-2-oxoethyl)-1H-1,2,4-triazole-3-carbonitrile], the IC50 is ≥ 1000 nM. As for `N#Cc1ncn(CC(=O)N2Cc3ccc(-c4ccccc4F)cc3C2)n1` [Example 65, 1-(2-(5-(2-fluorophenyl)isoindolin-2-yl)-2-oxoethyl)-1H-1,2,4-triazole-3-carbonitrile], the IC50 was ≥ 1000 nM.

In the case of `N#Cc1ncn(CC(=O)N2Cc3ccc(-c4ccncc4)cc3C2)n1` [Example 66, 1-(2-oxo-2-(5-(pyridin-4-yl)isoindolin-2-yl)ethyl)-1H-1,2,4-triazole-3-carbonitrile], the IC50 was ≥ 1000 nM. As for `N#Cc1ncn(CC(=O)N2Cc3ccc(-c4ccc(Br)cc4)cc3C2)n1` [Example 67, 1-(2-(5-(4-bromophenyl)isoindolin-2-yl)-2-oxoethyl)-1H-1,2,4-triazole-3-carbonitrile], the IC50 is ≥ 1000 nM.

For the molecule `N#Cc1ncn(CC(=O)N2Cc3ccc(-c4ccc(F)c(Cl)c4)cc3C2)n1` [Example 68, 1-(2-(5-(3-chloro-4-fluorophenyl)isoindolin-2-yl)-2-oxoethyl)-1H-1,2,4-triazole-3-carbonitrile], the IC50 was ≥ 1000 nM. For the molecule `N#Cc1ncn(CC(=O)N2Cc3ccc(-c4ccccc4-c4ccccc4)cc3C2)n1` [Example 69, 1-(2-(5-([1,1′-biphenyl]-2-yl)isoindolin-2-yl)-2-oxoethyl)-1H-1,2,4-triazole-3-carbonitrile], the IC50 was ≥ 1000 nM. Under `N#Cc1ncn(CC(=O)N2Cc3ccc(-c4ccc(Cl)c(F)c4)cc3C2)n1` [Example 70, 1-(2-(5-(4-chloro-3-fluorophenyl)isoindolin-2-yl)-2-oxoethyl)-1H-1,2,4-triazole-3-carbonitrile] stands ≥ 1000 nM; under `N#Cc1ncn(CC(=O)N2Cc3ccc(-c4ccc(Cl)cc4)cc3C2)n1` [Example 71, 1-(2-(5-(4-chlorophenyl)isoindolin-2-yl)-2-oxoethyl)-1H-1,2,4-triazole-3-carbonitrile], ≥ 1000 nM.

Take `N#Cc1ncn(CC(=O)N2Cc3ccc(-c4ccc(F)c(F)c4)cc3C2)n1` [Example 72, 1-(2-(5-(3,4-difluorophenyl)isoindolin-2-yl)-2-oxoethyl)-1H-1,2,4-triazole-3-carbonitrile]: the IC50 is ≥ 1000 nM. Take `N#Cc1ncn(CC(=O)N2Cc3ccc(-c4cccnc4F)cc3C2)n1` [Example 73, 1-(2-(5-(2-fluoropyridin-3-yl)isoindolin-2-yl)-2-oxoethyl)-1H-1,2,4-triazole-3-carbonitrile]: the IC50 was ≥ 1000 nM. For the molecule `N#Cc1ncn(CC(=O)N2Cc3ccc(-c4cc(F)cc(F)c4)cc3C2)n1` [Example 74, 1-(2-(5-(3,5-difluorophenyl)isoindolin-2-yl)-2-oxoethyl)-1H-1,2,4-triazole-3-carbonitrile], the IC50 was ≥ 1000 nM. For the molecule `COc1ccccc1-c1ccc2c(c1)CN(C(=O)Cn1cnc(C#N)n1)C2` [Example 75, 1-(2-(5-(2-methoxyphenyl)isoindolin-2-yl)-2-oxoethyl)-1H-1,2,4-triazole-3-carbonitrile], the IC50 is ≥ 1000 nM.

`N#Cc1ncn(CC(=O)N2Cc3ccc(-c4ccc(C(F)(F)F)cc4)cc3C2)n1` [Example 76, 1-(2-oxo-2-(5-(4-(trifluoromethyl)phenyl)isoindolin-2-yl)ethyl)-1H-1,2,4-triazole-3-carbonitrile]: the IC50 was ≥ 1000 nM. On to `COc1cccc(-c2ccc3c(c2)CN(C(=O)Cn2cnc(C#N)n2)C3)c1` [Example 77, 1-(2-(5-(3-methoxyphenyl)isoindolin-2-yl)-2-oxoethyl)-1H-1,2,4-triazole-3-carbonitrile], for which the IC50 is ≥ 1000 nM.

Take `Cc1cc(-c2ccc3c(c2)CN(C(=O)Cn2cnc(C#N)n2)C3)ccc1C(F)(F)F` [Example 78, 1-(2-(5-(3-methyl-4-(trifluoromethyl)phenyl)isoindolin-2-yl)-2-oxoethyl)-1H-1,2,4-triazole-3-carbonitrile]: the IC50 was ≥ 1000 nM. In the case of `N#Cc1ncn(CC(=O)N2Cc3ccc(-c4ccccc4)cc3C2)n1` [Example 79, 1-(2-oxo-2-(5-phenylisoindolin-2-yl)ethyl)-1H-1,2,4-triazole-3-carbonitrile], the IC50 was ≥ 1000 nM.

As for `N#Cc1ncn(CC(=O)N2Cc3ccc(-c4cccc(Cl)c4)cc3C2)n1` [Example 80, 1-(2-(5-(3-chlorophenyl)isoindolin-2-yl)-2-oxoethyl)-1H-1,2,4-triazole-3-carbonitrile], the IC50 is ≥ 1000 nM. For `N#Cc1ncn(CC(=O)N2Cc3ccc(-c4cccc(F)c4)cc3C2)n1` [Example 81, 1-(2-(5-(3-fluorophenyl)isoindolin-2-yl)-2-oxoethyl)-1H-1,2,4-triazole-3-carbonitrile], the IC50 is ≥ 1000 nM. As for `N#Cc1ncn(CC(=O)N2Cc3ccc(-c4ccc(F)cc4)cc3C2)n1` [Example 82, 1-(2-(5-(4-fluorophenyl)isoindolin-2-yl)-2-oxoethyl)-1H-1,2,4-triazole-3-carbonitrile], the IC50 is ≥ 1000 nM.
